According to patent US8927500B2, “Peptidomimetic macrocycles” (Aileron Therapeutics, Inc., priority 2012, dated 2015):
Where a SMILES comes first, the peptide text is derived from it. Bridges are numbered along the chain shown (N, C = ends). [ ]: non-standard residue; d: D form. Trp(6-Cl) = N[C@@H](Cc1c[nH]c2cc(Cl)ccc12)C(=O)O; R8 = C=CCCCCCC[C@@](C)(N)C(=O)O; Cba = N[C@@H](CC1CCC1)C(=O)O; hLeu = CC(C)CC[C@H](N)C(=O)O; S5 = C=CCCC[C@](C)(N)C(=O)O; Nle = CCCC[C@H](N)C(=O)O

Columns and labels:
[1] = molecular target: MDM2 (Homo sapiens, UniProt Q00987); experiment: Competitive fluorescence polarization assay for MDM2; type: binding; conditions: competitive FP assay, MDM2; for IC50: read-out: IC50 (MDM2); for Ki: read-out: Ki (MDM2)
MDM2, sequence (Q00987 1-125): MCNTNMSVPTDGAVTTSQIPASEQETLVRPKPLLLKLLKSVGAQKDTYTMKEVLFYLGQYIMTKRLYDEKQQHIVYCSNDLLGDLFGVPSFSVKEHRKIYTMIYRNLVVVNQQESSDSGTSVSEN

[2] = molecular target: T1, MDMX (Homo sapiens, UniProt O15151); experiment: Competitive fluorescence polarization assay for MDMX; type: binding; conditions: competitive FP assay; for IC50: read-out: IC50 (MDMX); for Ki: read-out: Ki (MDMX)
T1 sequence (O15151 1-125): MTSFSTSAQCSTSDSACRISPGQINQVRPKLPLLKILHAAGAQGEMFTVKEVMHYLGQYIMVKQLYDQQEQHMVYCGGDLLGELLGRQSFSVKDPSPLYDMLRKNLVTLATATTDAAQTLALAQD

| Structure (SMILES) | IC50 [1] [nM] | Ki [1] [nM] | IC50 [2] [nM] | Ki [2] [nM] |
| --- | --- | --- | --- | --- |
| CCCC[C@H](NC(=O)[C@H](Cc1c[nH]c2ccccc12)NC(=O)[C@H](C)NC(=O)[C@]1(C)CCCC=CCCCCCC[C@@](C)(NC(=O)[C@H](Cc2ccccc2)NC(=O)[C@@H](NC(=O)[C@H](CCC(=O)O)NC(C)=O)[C@@H](C)O)C(=O)N[C@@H](C)C(=O)N[C@@H](Cc2ccc(O)cc2)C(=O)N[C@@H](Cc2c[nH]c3ccccc23)C(=O)N[C@@H](C)C(=O)N[C@@H](CCC(N)=O)C(=O)N[C@@H](CC(C)C)C(=O)N1)C(=O)N[C@H](C)C(N)=O [compound 276] (Ac-ETF[R8]AYWAQL[S5]AW[Nle][dA]-NH2; staple 4-11) | 10 to 100 | < 10 | 10 to 100 | < 10 |
| CCCC[C@H](NC(=O)[C@H](Cc1c[nH]c2ccccc12)NC(=O)[C@H](C)NC(=O)[C@]1(C)CCCC=CCCCCCC[C@@](C)(NC(=O)[C@H](Cc2ccccc2)NC(=O)[C@@H](NC(=O)[C@H](CC(C)C)NC(C)=O)[C@@H](C)O)C(=O)N[C@@H](CCC(=O)O)C(=O)N[C@@H](Cc2ccc(O)cc2)C(=O)N[C@@H](Cc2c[nH]c3ccccc23)C(=O)N[C@@H](C)C(=O)N[C@@H](CCC(N)=O)C(=O)N[C@@H](CC(C)C)C(=O)N1)C(=O)N[C@H](C)C(N)=O [compound 277] (Ac-LTF[R8]EYWAQL[S5]AW[Nle][dA]-NH2; staple 4-11) | 10 to 100 | < 10 | 10 to 100 | < 10 |
| CCCC[C@H](NC(=O)[C@H](Cc1c[nH]c2ccccc12)NC(=O)[C@H](C)NC(=O)[C@]1(C)CCCC=CCCCCCC[C@@](C)(NC(=O)[C@H](Cc2ccccc2)NC(=O)[C@@H](NC(=O)[C@H](CCC(=O)O)NC(C)=O)[C@@H](C)O)C(=O)N[C@@H](CCC(=O)O)C(=O)N[C@@H](Cc2ccc(O)cc2)C(=O)N[C@@H](Cc2c[nH]c3ccccc23)C(=O)N[C@@H](C)C(=O)N[C@@H](CCC(N)=O)C(=O)N[C@@H](CC(C)C)C(=O)N1)C(=O)N[C@H](C)C(N)=O [compound 278] (Ac-ETF[R8]EYWAQL[S5]AW[Nle][dA]-NH2; staple 4-11) | 10 to 100 | < 10 | 10 to 100 | < 10 |
| CCCC[C@H](NC(=O)[C@H](C)NC(=O)[C@H](C)NC(=O)[C@]1(C)CCCC=CCCCCCC[C@@](C)(NC(=O)[C@H](Cc2ccccc2)NC(=O)[C@@H](NC(=O)[C@H](CC(C)C)NC(C)=O)[C@@H](C)O)C(=O)N[C@@H](C)C(=O)N[C@@H](Cc2ccc(O)cc2)C(=O)N[C@@H](Cc2c[nH]c3ccccc23)C(=O)N[C@@H](CO)C(=O)N[C@@H](CCC(N)=O)C(=O)N[C@@H](CC(C)C)C(=O)N1)C(=O)N[C@@H](C)C(N)=O [compound 306] (Ac-LTF[R8]AYWSQL[S5]AA[Nle]A-NH2; staple 4-11) | < 10 | < 10 | 100 to 1000 | 10 to 100 |
| CCCC[C@H](NC(=O)[C@H](C)NC(=O)[C@H](C)NC(=O)[C@]1(C)CCCC=CCCCCCC[C@@](C)(NC(=O)[C@H](Cc2ccccc2)NC(=O)[C@@H](NC(=O)[C@H](CC(C)C)NC(C)=O)[C@@H](C)O)C(=O)N[C@@H](CCC(=O)O)C(=O)N[C@@H](Cc2ccc(O)cc2)C(=O)N[C@@H](Cc2c[nH]c3ccccc23)C(=O)N[C@@H](C)C(=O)N[C@@H](CCC(N)=O)C(=O)N[C@@H](CCC(C)C)C(=O)N1)C(=O)N[C@@H](C)C(N)=O [compound 318] (Ac-LTF[R8]EYWAQ[hLeu][S5]AA[Nle]A-NH2; staple 4-11) | 10 to 100 | 10 to 100 | 100 to 1000 | 10 to 100 |
| CCCC[C@H](NC(=O)[C@H](C)NC(=O)[C@H](C)NC(=O)[C@]1(C)CCCC=CCCCCCC[C@@](C)(NC(=O)[C@H](Cc2ccccc2)NC(=O)[C@@H](NC(=O)[C@H](C)NC(=O)[C@H](C)NC(C)=O)[C@@H](C)O)C(=O)N[C@@H](C)C(=O)N[C@@H](Cc2ccc(O)cc2)C(=O)N[C@@H](Cc2c[nH]c3ccccc23)C(=O)N[C@@H](C)C(=O)N[C@@H](CCC(N)=O)C(=O)N[C@@H](CC(C)C)C(=O)N1)C(=O)N[C@@H](C)C(N)=O [compound 319] (Ac-AATF[R8]AYWAQL[S5]AA[Nle]A-NH2; staple 5-12) | 10 to 100 | 10 to 100 | 100 to 1000 | 100 to 1000 |
| CCCC[C@H](NC(=O)[C@H](C)NC(=O)[C@H](C)NC(=O)[C@]1(C)CCCC=CCCCCCC[C@@](C)(NC(=O)[C@H](Cc2ccccc2)NC(=O)[C@@H](NC(=O)[C@H](CC(C)C)NC(C)=O)[C@@H](C)O)C(=O)N[C@@H](C)C(=O)N[C@@H](Cc2ccc(O)cc2)C(=O)N[C@@H](Cc2c[nH]c3ccccc23)C(=O)N[C@@H](C)C(=O)N[C@@H](CCC(N)=O)C(=O)N[C@@H](CC(C)C)C(=O)N1)C(=O)N[C@@H](C)C(=O)N[C@@H](C)C(N)=O [compound 320] | 10 to 100 | 10 to 100 | 100 to 1000 | 100 to 1000 |
| CCCC[C@H](NC(=O)[C@H](C)NC(=O)[C@H](C)NC(=O)[C@]1(C)CCCC=CCCCCCC[C@@](C)(NC(=O)[C@H](Cc2ccccc2)NC(=O)[C@@H](NC(=O)[C@H](CC(C)C)NC(=O)[C@H](C)NC(C)=O)[C@@H](C)O)C(=O)N[C@@H](C)C(=O)N[C@@H](Cc2ccc(O)cc2)C(=O)N[C@@H](Cc2c[nH]c3ccccc23)C(=O)N[C@@H](C)C(=O)N[C@@H](CCC(N)=O)C(=O)N[C@@H](CC(C)C)C(=O)N1)C(=O)N[C@@H](C)C(=O)N[C@@H](C)C(N)=O [compound 321] | 10 to 100 | < 10 | 100 to 1000 | 10 to 100 |
| CCCC[C@H](NC(=O)[C@H](C)NC(=O)[C@H](C)NC(=O)[C@]1(C)CCCC=CCCCCCC[C@@](C)(NC(=O)[C@H](Cc2ccccc2)NC(=O)[C@@H](NC(=O)[C@H](CC(C)C)NC(C)=O)[C@@H](C)O)C(=O)N[C@@H](C)C(=O)N[C@@H](Cc2ccc(O)cc2)C(=O)N[C@@H](Cc2c[nH]c3ccccc23)C(=O)N[C@@H](C)C(=O)N[C@@H](CCC(N)=O)C(=O)N[C@@H](CC2CCC2)C(=O)N1)C(=O)N[C@@H](C)C(=O)N[C@@H](C)C(N)=O [compound 322] (Ac-LTF[R8]AYWAQ[Cba][S5]AA[Nle]AA-NH2; staple 4-11) | 10 to 100 | 10 to 100 | 100 to 1000 | 100 to 1000 |
| CCCC[C@H](NC(=O)[C@H](C)NC(=O)[C@H](C)NC(=O)[C@]1(C)CCCC=CCCCCCC[C@@](C)(NC(=O)[C@H](Cc2ccccc2)NC(=O)[C@@H](NC(=O)[C@H](CC(C)C)NC(C)=O)[C@@H](C)O)C(=O)N[C@@H](C)C(=O)N[C@@H](Cc2ccc(O)cc2)C(=O)N[C@@H](Cc2c[nH]c3ccccc23)C(=O)N[C@@H](C)C(=O)N[C@@H](CCC(N)=O)C(=O)N[C@@H](CCC(C)C)C(=O)N1)C(=O)N[C@@H](C)C(=O)N[C@@H](C)C(N)=O [compound 323] | 10 to 100 | 10 to 100 | > 1000 | 100 to 1000 |
| CC(=O)N[C@@H](C)C(=O)N[C@@H](CC(C)C)C(=O)N[C@H](C(=O)N[C@@H](Cc1ccccc1)C(=O)N[C@]1(C)CCCCCCC=CCCC[C@@](C)(C(=O)N[C@@H](CO)C(=O)N[C@@H](C)C(=O)N[C@@H](C)C(=O)N[C@@H](C)C(N)=O)NC(=O)[C@H](CC2CCC2)NC(=O)[C@H](CCC(N)=O)NC(=O)[C@H](C)NC(=O)[C@H](Cc2c[nH]c3ccccc23)NC(=O)[C@H](Cc2ccc(O)cc2)NC(=O)[C@H](CCC(=O)O)NC1=O)[C@@H](C)O [compound 329] | 10 to 100 | < 10 | 10 to 100 | 10 to 100 |
| CC(=O)N[C@@H](Cc1ccccc1)C(=O)N[C@]1(C)CCCCCCC=CCCC[C@@](C)(C(=O)N[C@@H](C)C(=O)N[C@@H](C)C(=O)N[C@@H](C)C(=O)N[C@@H](C)C(=O)N[C@@H](C)C(=O)N[C@@H](C)C(=O)N[C@H](C)C(N)=O)NC(=O)[C@H](CC(C)C)NC(=O)[C@H](C)NC(=O)[C@H](CCC(=O)O)NC(=O)[C@H](Cc2c[nH]c3cc(Cl)ccc23)NC(=O)[C@H](Cc2ccc(O)cc2)NC(=O)[C@H](C)NC1=O [compound 339] (Ac-F[R8]AY[Trp(6-Cl)]EAL[S5]AAAAAA[dA]-NH2; staple 2-9) | < 10 | < 10 | 100 to 1000 | 10 to 100 |
| CC(=O)N[C@@H](CCCNC(=N)N)C(=O)N[C@H](C(=O)N[C@@H](Cc1ccccc1)C(=O)N[C@]1(C)CCCCCCC=CCCC[C@@](C)(C(=O)N[C@@H](CO)C(=O)N[C@@H](C)C(=O)N[C@@H](C)C(N)=O)NC(=O)[C@H](CC2CCC2)NC(=O)[C@H](CCC(N)=O)NC(=O)[C@H](C)NC(=O)[C@H](Cc2c[nH]c3ccccc23)NC(=O)[C@H](Cc2ccc(O)cc2)NC(=O)[C@H](CCC(=O)O)NC1=O)[C@@H](C)O [compound 360] (Ac-RTF[R8]EYWAQ[Cba][S5]SAA-NH2; staple 4-11) | < 10 | < 10 | < 10 | < 10 |
| CC(=O)N[C@@H](CC(C)C)C(=O)N[C@H](C(=O)N[C@@H](Cc1ccccc1)C(=O)N[C@]1(C)CCCCCCC=CCCC[C@@](C)(C(=O)N[C@@H](CO)C(=O)N[C@@H](C)C(=O)N[C@@H](C)C(N)=O)NC(=O)[C@H](CC2CCC2)NC(=O)[C@H](CCCNC(=N)N)NC(=O)[C@H](C)NC(=O)[C@H](Cc2c[nH]c3ccccc23)NC(=O)[C@H](Cc2ccc(O)cc2)NC(=O)[C@H](CCC(=O)O)NC1=O)[C@@H](C)O [compound 363] (Ac-LTF[R8]EYWAR[Cba][S5]SAA-NH2; staple 4-11) | 10 to 100 | < 10 | 10 to 100 | < 10 |
| CC(=O)N[C@@H](CC(C)C)C(=O)N[C@H](C(=O)N[C@@H](Cc1ccccc1)C(=O)N[C@]1(C)CCCCCCC=CCCC[C@@](C)(C(=O)N[C@@H](CCCNC(=N)N)C(=O)N[C@@H](C)C(=O)N[C@@H](C)C(N)=O)NC(=O)[C@H](CC2CCC2)NC(=O)[C@H](CCC(N)=O)NC(=O)[C@H](C)NC(=O)[C@H](Cc2c[nH]c3ccccc23)NC(=O)[C@H](Cc2ccc(O)cc2)NC(=O)[C@H](CCC(=O)O)NC1=O)[C@@H](C)O [compound 364] (Ac-LTF[R8]EYWAQ[Cba][S5]RAA-NH2; staple 4-11) | 10 to 100 | < 10 | 10 to 100 | < 10 |
